This passage reports EC50, Emax and metabolite profile results from patent publication US20240336572A1, “SUBSTITUTED INDAZOLE PROPIONIC ACID DERIVATIVE COMPOUNDS AND USES THEREOF” (Pfizer Inc., priority 2023, published 2024).

A value given as a limit tells only on which side of the number the result lay.

Usually EC50 stands for the concentration needed to bring the measured effect to its halfway point. A high value points to lower potency in that assay. As a reminder, the Emax is the maximal effect, on the per cent scale that the assay sets.

The target of series [1] is T1, AMPK 221 (Homo sapiens, UniProt O43741+P54646).
T1 construct: open reading frames encoding the full-length α2, β2 and δ1 subunits of human AMPK; made in house; host or cells: E. coli BL21-CodonPlus (DE3)-RIPL, pET-14b
T1 sequence (P54646 whole entry): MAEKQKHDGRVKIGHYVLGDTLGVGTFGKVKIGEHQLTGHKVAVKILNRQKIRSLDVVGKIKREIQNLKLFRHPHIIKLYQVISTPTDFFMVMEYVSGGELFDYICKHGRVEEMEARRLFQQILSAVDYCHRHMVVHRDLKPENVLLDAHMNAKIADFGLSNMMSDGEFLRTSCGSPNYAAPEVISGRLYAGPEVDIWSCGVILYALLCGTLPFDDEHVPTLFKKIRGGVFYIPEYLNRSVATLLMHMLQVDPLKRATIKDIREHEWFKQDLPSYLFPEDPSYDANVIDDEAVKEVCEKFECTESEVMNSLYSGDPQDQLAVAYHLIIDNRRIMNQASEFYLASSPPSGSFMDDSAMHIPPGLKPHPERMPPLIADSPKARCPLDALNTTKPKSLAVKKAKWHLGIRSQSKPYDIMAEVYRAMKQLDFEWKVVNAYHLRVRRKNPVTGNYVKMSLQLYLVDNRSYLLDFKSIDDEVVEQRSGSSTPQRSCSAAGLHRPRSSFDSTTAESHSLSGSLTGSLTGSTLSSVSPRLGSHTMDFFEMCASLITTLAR
T1 sequence (O43741 whole entry): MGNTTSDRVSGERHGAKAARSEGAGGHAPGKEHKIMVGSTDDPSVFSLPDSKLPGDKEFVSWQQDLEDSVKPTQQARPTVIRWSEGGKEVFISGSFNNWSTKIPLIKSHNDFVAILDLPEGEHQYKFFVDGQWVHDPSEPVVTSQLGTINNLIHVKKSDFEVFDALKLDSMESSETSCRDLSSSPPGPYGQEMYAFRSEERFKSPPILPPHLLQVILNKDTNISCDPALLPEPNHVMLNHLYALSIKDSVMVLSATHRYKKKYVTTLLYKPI
T1 sequence (P54619 whole entry partner): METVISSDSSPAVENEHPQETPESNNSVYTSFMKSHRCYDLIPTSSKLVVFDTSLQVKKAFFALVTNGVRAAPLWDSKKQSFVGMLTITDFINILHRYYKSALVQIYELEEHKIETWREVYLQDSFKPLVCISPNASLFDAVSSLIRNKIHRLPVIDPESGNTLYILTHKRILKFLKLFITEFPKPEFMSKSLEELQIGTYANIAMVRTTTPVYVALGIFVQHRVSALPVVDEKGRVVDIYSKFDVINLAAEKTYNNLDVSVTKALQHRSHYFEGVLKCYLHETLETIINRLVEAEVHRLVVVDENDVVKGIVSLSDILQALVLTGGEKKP
Nature of the series: Biochemical profiling of AMPK activators by AMPK221 (HTRF/TR-FRET assay, SAMS peptide, PP2A dephosphorylation protection). Particulars: for EC50: phosphorylated AMPK 221 (α2β2δ1), 11 point dilution, duplicate, 4-parameter fit. In general terms: In TR-FRET formats the signal depends on donor and acceptor labels being close together.

Series [2] can be described thus: Metabolite profile in liver microsomes, hepatocytes, recombinant human P450 and UGT enzymes, and animal plasma. The note with it: liver microsomes and hepatocytes (mouse, rat, rabbit, dog, monkey, human). The class given is in vitro ADME. The method, then:
The metabolite profile of Example 1 is evaluated in liver microsomes and hepatocytes (mouse, rat, rabbit, dog, monkey, and human), recombinant human cytochrome P450 enzymes, recombinant human UGT enzymes, and plasma from animals (mouse, rat, and dog).
(Liver microsomes are a subcellular fraction often used to study metabolism.)

Series [3] concerns the target T2, AMPK 111 (Homo sapiens, UniProt Q13131+Q9Y478).
T2 construct: open reading frames encoding the full-length α1, β1 and δ1 subunits of human AMPK; made in house; host or cells: E. coli BL21-CodonPlus (DE3)-RIPL, pET-14b
Nature of the series: Biochemical profiling of AMPK activators by AMPK111 (HTRF/TR-FRET assay, SAMS peptide, PP2A dephosphorylation protection). The note with it: for EC50: phosphorylated AMPK 111 (α1β1δ1 as printed), 11 point dilution, duplicate, 4-parameter fit.

T2 sequence (Q13131 whole entry): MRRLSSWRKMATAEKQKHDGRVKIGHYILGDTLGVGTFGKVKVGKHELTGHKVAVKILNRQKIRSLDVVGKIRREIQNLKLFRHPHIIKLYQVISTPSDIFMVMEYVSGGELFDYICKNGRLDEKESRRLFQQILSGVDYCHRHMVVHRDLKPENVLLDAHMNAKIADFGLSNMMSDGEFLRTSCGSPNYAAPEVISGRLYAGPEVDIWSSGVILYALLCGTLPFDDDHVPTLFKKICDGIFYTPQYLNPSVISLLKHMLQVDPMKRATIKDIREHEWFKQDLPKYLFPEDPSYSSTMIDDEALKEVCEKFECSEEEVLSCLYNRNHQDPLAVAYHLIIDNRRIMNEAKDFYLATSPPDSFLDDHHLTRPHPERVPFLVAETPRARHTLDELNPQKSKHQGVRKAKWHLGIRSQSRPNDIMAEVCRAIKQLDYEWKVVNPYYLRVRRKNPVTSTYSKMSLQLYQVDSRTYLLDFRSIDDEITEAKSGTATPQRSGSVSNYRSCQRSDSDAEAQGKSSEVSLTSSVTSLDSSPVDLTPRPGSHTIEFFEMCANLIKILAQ
T2 sequence (Q9Y478 whole entry): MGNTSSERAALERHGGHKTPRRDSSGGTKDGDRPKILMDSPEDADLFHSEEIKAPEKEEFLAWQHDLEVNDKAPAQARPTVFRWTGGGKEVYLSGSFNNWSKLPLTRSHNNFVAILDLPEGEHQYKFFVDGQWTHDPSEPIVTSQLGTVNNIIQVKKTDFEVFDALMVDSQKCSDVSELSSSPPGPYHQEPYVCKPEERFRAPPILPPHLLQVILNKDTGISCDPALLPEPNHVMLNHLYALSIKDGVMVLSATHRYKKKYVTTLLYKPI
T2 sequence (P54619 whole entry partner): as the sequence (P54619 whole entry partner) above

In the case of `O=C(O)CCc1n[nH]c2cc(Cl)c(-c3ccc(-c4ccccc4O)cc3)cc12` [Example 1, 3-(6-Chloro-5-(2′-hydroxy-[1,1′-biphenyl]-4-yl)-1H-indazol-3-yl)propanoic acid], the results for the EC50 in series [1] and in series [3] were 88 nM and 47 nM, respectively. Moreover, the Emax in series [1] (phosphorylated AMPK 221, maximal activation) is 57%; in series [3] (phosphorylated AMPK 111, maximal activation), 75%. In addition, the metabolite profile result in series [2] was “oxidation and glucuronidation”.
`O=C(O)CCc1n[nH]c2cc(Cl)c(-c3ccc(-c4ccccc4OC4OC(C(=O)O)C(O)C(O)C4O)cc3)cc12` (stereo not shown) [Example 80, 6-((4′-(3-(2-carboxyethyl)-6-chloro-1H-indazol-5-yl)-[1,1′-biphenyl]-2-yl)oxy)-3,4,5-trihydroxytetrahydro-2H-pyran-2-carboxylic acid]: the EC50 in series [1] and in series [3] was over 21100 nM in each case.
